Data taken from patent publication US8592438B2, “Plant disease control composition” (Sumitomo Chemical Intellectual Property Service, Ltd, priority 2008, dated 2013).

Tests used:
[1] = tested on: cucumber Gray mold fungus; assay: Test Example 1: cucumber Gray mold control test, foliar spray on potted cucumber; assay type: in vivo; settings: spray on cucumber stems and leaves, 6 days at 12° C. humid
Method: A plastic pot was stuffed with sand loam, and cucumber was sowed, and grown for 12 days in a greenhouse. A compound (Ia), compound (Ib) and compound (II) were prepared into flowable formulations according to the following preparation method, and the resultant flowable formulations were diluted with water, then, mixed to prepare a treatment solution containing the compound (Ia) and compound (II) of prescribed concentrations, and a treatment solution containing the compound (Ib) and compound (II) of prescribed concentrations. The treatment solutions were sprayed on stems and leaves so as to fully adhere to the leaf surfaces of the cucumber. After spraying, the plant was air-dried, and a PDA medium containing spores of cucumber Gray mold fungus was placed on the cucumber leaf surface. Thereafter, it was left for 6 days at 12° C. under humid condition, then, a control effect thereof was checked.
Further, wettable powders of the compound (Ia), compound (Ib) and compound (II) each were diluted with water to prescribed concentrations to prepare respective treatment solutions, which were subjected to a parallel test.
In checking, evaluation indices described later were used. According to formula 1, the pathogenesis degree was calculated, and based on the pathogenesis degree, a controlling value (%) was calculated using formula 2.
(§1) A compound (Ia), compound (Ib) or compound (II) (10 parts), a mixture (35 parts) of white carbon and polyoxyethylene alkyl ether sulfate ammonium salt (weight ratio 1:1) and water (55 parts) were mixed, and finely ground by a wet grinding method to obtain respective flowable formulations.
• 0: disease spot diameter, 0 mm • 1: disease spot diameter, 1 to 5 mm • 2: disease spot diameter, 5 to 10 mm • 3: disease spot diameter, 10 to 15 mm • 4: disease spot diameter, 15 to 20 mm • 5: disease spot diameter, over 20 mm pathogenesis degree=Σ(evaluation index of checked leaf)×100/(5×number of checked leaves) Formula 1 controlling value (%)=100×(A−B)/A Formula 2 • A: pathogenesis degree of plant in non-treated district • B: pathogenesis degree of plant in treated district

[2] = tested on: cucumber Gray mold fungus; assay: Test Example 2: cucumber Gray mold control test, foliar spray on potted cucumber, disease spot diameter indices; assay type: in vivo; settings: sum over 8 cucumber leaves, index 0 (spot 0 mm) to 5 (over 20 mm), 12° C. humid
Method: A plastic pot was stuffed with sand loam, and cucumber was sowed, and grown for 12 days in a greenhouse. A compound (Ia), compound (Ib), compound (III) and compound (IV) were prepared into flowable formulations according to the following preparation method, and the resultant flowable formulations were diluted with water, then, mixed to prepare a treatment solution containing the compound (Ia) and compound (III) of prescribed concentrations, a treatment solution containing the compound (Ib) and compound (III) of prescribed concentrations, a treatment solution containing the compound (Ia) and compound (IV) of prescribed concentrations, and a treatment solution containing the compound (Ib) and compound (IV) of prescribed concentrations. The treatment solutions were sprayed on stems and leaves so as to fully adhere to the leaf surfaces of the cucumber. After spraying, the plant was air-dried, and a PDA medium containing spores of cucumber Gray mold fungus was placed on the cucumber leaf surface. Thereafter, it was left under humid condition at 12° C., then, a control effect thereof was checked.
Further, wettable powders of the compound (Ia), compound (Ib), compound (III) and compound (IV) each were diluted with water to prescribed concentrations to prepare respective treatment solutions, which were subjected to a parallel test.
In checking of the control effect, the disease spot diameter was measured for 8 leaves of cucumber. A case of a disease spot diameter of 0 mm was evaluated as a controlling index of 0, a case of a disease spot diameter of 1 to 5 mm was evaluated as a controlling index of 1, a case of a disease spot diameter of 5 to 10 mm was evaluated as a controlling index of 2, a case of a disease spot diameter of 10 to 15 mm was evaluated as a controlling index of 3, a case of a disease spot diameter of 15 to 20 mm was evaluated as a controlling index of 4, and a case of a disease spot diameter of over 20 mm was evaluated as a controlling index of 5.
as §1, with “(Ib), compound (III)” for “(Ib)”, “(IV)” for “(II)”

[3] = active ingredient concentration 10 ppm
[4] = active ingredient concentration 5 ppm
[5] = active ingredient concentration 2.5 ppm
[6] = active ingredient concentration 20 ppm
[7] = active ingredient concentration 40 ppm

Row | SMILES | controlling value [1, 3] [%] | sum of controlling indices [2, 4] | sum of controlling indices [2, 5] | controlling value [1, 5] [%] | controlling value [1, 6] [%] | sum of controlling indices [2, 3] | sum of controlling indices [2, 6] | controlling value [1, 4] [%] | controlling value [1, 7] [%] | sum of controlling indices [2, 7]
1 | Cc1cc(C)nc(Nc2ccccc2)n1 [compound (II), 4,6-dimethyl-N-phenyl-2-pyrimidinamine, reference compound] | 30 |  |  |  |  |  |  |  |  | 
2 | CC#Cc1cc(C)nc(Nc2ccccc2)n1 [compound (III), 4-methyl-N-phenyl-6-(1-propynyl)-2-pyrimidinamine, reference compound] |  | 10 |  |  |  |  |  |  |  | 
3 | Cc1cc(C2CC2)nc(Nc2ccccc2)n1 [compound (IV), 4-cyclopropyl-6-methyl-N-phenyl-2-pyrimidinamine, reference compound] |  | 9 | 24 |  |  |  |  |  |  | 
4 | CNC(=O)[C@H](OC)c1ccccc1COc1cc(C)ccc1C [compound (Ia)] | 60 | 25 | 27 | 48 | 68 | 24 | 23 |  |  | 
5 | CNC(=O)C(OC)c1ccccc1COc1cc(C)ccc1C (stereo not drawn) [compound (Ib)] |  | 25 |  |  | 60 | 26 | 24 | 48 | 68 | 24
